Reference: PMC7614683, “A small molecule PI3Kα activator for cardioprotection and neuroregeneration” (Nature, 2023)
Read-outs that look alike come from different tables or passages of the source.

What was measured:
Assay in all cases: SelectScreen Z-LYTE kinase activity assay (SI Table 6)
Type in all cases: biochemical
[1] = biological target: protein kinases of the Z-LYTE panel (Homo sapiens, UniProt Q9UM73)
Procedure, shortened: (§1)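 Kinases in the SelectScreen panel (Adapta, LanthaScreen binding, Z-LYTE formats) were tested against compound at 1 μM. Separately, ATM (100 nM, 5 μM GST-p53, 1 mM ATP, 30 min, 30°C) and mTORC1 (50 nM, 15 μM 4E-BP1, 250 μM ATP, 3 h) were run with 200 μM compound. Those products were read on Phos-tag gels.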

[2] = biological target: T1, protein kinases of the Z-LYTE panel (Homo sapiens, UniProt P43403)
T1 sequence (P43403 1-619): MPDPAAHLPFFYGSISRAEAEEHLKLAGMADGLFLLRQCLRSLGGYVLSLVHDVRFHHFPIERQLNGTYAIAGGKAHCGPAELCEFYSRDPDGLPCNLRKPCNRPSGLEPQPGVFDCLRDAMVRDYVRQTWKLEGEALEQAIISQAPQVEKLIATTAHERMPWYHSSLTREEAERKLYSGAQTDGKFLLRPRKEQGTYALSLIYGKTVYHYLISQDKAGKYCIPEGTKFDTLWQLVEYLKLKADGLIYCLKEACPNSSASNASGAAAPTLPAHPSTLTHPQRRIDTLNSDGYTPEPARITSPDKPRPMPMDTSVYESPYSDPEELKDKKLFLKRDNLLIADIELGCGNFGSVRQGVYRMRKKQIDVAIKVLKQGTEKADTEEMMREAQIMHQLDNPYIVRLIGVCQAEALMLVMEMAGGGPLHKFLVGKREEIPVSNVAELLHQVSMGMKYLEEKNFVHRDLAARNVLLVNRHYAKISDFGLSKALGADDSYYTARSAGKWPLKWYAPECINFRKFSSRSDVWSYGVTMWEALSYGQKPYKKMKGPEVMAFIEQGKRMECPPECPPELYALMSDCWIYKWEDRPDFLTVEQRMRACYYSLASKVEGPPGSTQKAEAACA
Procedure, shortened: as §1

[3] = biological target: protein kinases of the Z-LYTE panel (Homo sapiens, UniProt P23458)
Procedure, shortened: as §1

[4] = biological target: protein kinases of the Z-LYTE panel (Homo sapiens, UniProt Q13177)
Procedure, shortened: as §1

[5] = biological target: T2, protein kinases of the Z-LYTE panel (Homo sapiens, UniProt Q9UQB9)
T2 sequence (Q9UQB9 1-309): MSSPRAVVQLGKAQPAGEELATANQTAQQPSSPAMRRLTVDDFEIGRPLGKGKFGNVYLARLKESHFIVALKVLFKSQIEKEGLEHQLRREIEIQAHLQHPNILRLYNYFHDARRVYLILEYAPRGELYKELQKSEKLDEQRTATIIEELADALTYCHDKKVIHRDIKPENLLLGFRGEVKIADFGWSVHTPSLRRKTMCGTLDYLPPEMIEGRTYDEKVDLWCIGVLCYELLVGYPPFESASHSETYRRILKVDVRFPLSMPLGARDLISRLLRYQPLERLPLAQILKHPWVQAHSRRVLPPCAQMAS
Procedure, shortened: as §1

[6] = biological target: protein kinases of the Z-LYTE panel (Homo sapiens, UniProt P43405)
Procedure, shortened: as §1

[7] = biological target: protein kinases of the Z-LYTE panel (Homo sapiens, UniProt P49759)
Procedure, shortened: as §1

Sequence of protein kinases of the Z-LYTE panel (Homo sapiens, UniProt Q9UM73) (Q9UM73 19-1620): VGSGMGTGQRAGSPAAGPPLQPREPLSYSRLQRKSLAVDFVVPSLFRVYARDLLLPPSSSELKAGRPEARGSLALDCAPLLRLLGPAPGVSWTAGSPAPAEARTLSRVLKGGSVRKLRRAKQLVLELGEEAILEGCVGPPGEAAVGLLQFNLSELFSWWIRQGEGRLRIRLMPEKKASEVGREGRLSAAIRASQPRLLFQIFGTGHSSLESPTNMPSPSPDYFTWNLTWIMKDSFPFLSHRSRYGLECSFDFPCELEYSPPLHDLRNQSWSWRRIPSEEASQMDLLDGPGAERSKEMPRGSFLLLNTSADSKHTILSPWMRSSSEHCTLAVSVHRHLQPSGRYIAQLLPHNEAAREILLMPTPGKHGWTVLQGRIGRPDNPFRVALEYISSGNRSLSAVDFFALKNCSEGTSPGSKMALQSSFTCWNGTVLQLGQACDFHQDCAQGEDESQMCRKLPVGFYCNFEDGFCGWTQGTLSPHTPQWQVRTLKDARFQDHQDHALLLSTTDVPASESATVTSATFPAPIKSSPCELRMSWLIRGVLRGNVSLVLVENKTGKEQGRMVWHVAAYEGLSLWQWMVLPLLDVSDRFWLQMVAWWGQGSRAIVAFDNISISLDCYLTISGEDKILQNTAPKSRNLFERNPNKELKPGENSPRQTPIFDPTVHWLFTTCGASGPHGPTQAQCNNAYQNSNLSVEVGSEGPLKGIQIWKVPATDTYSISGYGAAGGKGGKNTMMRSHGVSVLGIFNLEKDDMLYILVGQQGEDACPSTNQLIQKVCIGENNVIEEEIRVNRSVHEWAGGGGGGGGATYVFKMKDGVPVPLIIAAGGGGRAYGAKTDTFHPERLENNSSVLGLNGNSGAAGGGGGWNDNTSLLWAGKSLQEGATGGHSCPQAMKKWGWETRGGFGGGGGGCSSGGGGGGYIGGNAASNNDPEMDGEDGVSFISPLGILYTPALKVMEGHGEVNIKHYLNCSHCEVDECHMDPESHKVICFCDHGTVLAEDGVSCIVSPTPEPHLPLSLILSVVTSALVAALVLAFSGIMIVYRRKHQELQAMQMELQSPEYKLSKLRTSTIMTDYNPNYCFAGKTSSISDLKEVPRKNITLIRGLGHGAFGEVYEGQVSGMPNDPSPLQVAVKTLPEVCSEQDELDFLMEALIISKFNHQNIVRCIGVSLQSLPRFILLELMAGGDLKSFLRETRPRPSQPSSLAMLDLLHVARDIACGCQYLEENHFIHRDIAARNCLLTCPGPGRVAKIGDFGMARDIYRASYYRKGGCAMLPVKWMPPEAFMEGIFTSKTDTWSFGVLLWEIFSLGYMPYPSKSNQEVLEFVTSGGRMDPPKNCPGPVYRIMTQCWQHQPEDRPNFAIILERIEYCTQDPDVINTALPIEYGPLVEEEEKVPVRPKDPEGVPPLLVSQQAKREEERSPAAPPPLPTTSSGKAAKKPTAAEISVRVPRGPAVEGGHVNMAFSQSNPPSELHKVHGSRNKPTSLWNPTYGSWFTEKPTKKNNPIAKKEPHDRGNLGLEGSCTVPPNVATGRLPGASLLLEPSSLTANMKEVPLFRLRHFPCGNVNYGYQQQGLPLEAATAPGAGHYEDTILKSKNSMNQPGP
Sequence of protein kinases of the Z-LYTE panel (Homo sapiens, UniProt P49759) (P49759 whole entry): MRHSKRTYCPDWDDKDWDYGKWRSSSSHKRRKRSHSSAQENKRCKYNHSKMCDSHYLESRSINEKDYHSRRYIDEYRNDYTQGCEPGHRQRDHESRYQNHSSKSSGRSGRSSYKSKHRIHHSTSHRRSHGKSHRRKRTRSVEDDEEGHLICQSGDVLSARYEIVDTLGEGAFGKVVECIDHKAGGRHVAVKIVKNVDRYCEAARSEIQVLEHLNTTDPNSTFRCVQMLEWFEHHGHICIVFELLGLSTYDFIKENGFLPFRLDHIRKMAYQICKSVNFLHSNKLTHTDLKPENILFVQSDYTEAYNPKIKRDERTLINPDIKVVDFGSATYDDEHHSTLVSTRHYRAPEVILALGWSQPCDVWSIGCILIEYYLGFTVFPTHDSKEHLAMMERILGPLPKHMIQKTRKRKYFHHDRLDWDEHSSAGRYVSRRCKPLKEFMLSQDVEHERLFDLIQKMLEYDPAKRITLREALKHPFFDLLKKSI
Sequence of protein kinases of the Z-LYTE panel (Homo sapiens, UniProt P23458) (P23458 whole entry): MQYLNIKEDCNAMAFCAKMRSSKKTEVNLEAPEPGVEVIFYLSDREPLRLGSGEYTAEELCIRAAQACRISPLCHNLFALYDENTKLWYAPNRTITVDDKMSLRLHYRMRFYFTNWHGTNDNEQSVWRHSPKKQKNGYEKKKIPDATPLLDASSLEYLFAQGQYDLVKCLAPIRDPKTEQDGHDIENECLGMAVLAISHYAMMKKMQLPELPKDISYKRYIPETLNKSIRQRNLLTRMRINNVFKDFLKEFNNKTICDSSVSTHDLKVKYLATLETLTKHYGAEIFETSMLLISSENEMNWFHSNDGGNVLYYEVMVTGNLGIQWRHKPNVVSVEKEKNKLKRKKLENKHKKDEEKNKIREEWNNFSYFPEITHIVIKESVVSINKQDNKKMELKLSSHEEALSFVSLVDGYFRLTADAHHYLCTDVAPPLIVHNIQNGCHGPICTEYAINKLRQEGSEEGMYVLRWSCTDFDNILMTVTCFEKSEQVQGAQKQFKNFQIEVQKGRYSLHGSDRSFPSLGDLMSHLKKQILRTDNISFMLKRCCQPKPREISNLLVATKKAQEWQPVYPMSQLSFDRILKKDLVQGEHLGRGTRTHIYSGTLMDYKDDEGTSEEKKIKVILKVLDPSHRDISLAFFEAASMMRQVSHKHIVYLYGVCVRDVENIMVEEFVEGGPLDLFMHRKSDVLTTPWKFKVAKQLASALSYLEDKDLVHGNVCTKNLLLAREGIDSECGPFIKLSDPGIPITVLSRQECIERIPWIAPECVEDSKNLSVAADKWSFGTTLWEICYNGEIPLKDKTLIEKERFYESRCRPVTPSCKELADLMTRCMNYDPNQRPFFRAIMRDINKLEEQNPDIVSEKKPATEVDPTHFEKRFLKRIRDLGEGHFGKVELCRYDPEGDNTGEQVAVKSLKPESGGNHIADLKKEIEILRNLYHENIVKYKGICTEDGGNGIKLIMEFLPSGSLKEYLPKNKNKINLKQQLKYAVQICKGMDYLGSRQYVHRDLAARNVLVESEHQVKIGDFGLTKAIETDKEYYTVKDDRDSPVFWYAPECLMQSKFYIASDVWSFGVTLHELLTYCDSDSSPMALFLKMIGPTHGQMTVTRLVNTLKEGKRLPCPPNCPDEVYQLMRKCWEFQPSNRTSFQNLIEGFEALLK
Sequence of protein kinases of the Z-LYTE panel (Homo sapiens, UniProt Q13177) (Q13177 whole entry): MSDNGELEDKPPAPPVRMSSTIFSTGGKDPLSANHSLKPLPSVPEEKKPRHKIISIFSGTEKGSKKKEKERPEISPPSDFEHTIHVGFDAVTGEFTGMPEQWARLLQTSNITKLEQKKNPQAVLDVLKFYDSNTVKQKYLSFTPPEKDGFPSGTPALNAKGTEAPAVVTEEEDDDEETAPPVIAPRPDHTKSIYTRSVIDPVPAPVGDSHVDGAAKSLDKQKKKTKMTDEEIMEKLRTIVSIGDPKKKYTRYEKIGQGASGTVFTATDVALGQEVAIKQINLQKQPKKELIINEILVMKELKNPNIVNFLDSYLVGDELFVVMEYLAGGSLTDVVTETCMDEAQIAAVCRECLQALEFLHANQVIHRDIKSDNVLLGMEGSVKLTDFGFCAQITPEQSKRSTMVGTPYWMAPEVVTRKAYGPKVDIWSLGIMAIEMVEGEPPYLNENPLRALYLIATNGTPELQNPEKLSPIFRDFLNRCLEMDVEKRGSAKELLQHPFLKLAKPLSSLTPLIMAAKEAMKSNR

With `CCN1CCN(c2ccc(Nc3cc(Nc4cccc5c4N(C(C)=O)CC5)ccn3)cc2)CC1` [Compound 1938] the inhibition at 1 µM ([1]; read-out: % Inhibition Point 1) was 11%, the inhibition at 1 µM ([1]; read-out: % Inhibition Point 2) was 15% and the inhibition at 1 µM ([1]; read-out: % Inhibition mean) was 13%. It also gave an inhibition at 1 µM ([2]; read-out: % Inhibition Point 1) of 3%, an inhibition at 1 µM ([2]; read-out: % Inhibition Point 2) of -4.63% and an inhibition at 1 µM ([2]; read-out: % Inhibition mean) of -0.814%. The inhibition at 1 µM ([3]; read-out: % Inhibition Point 1) was -2%, the inhibition at 1 µM ([3]; read-out: % Inhibition Point 2) was -2% and the inhibition at 1 µM ([3]; read-out: % Inhibition mean) was -2%. For the same compound, the inhibition at 1 µM ([4]; read-out: % Inhibition Point 1) was 5%, the inhibition at 1 µM ([4]; read-out: % Inhibition Point 2) was 4.68% and the inhibition at 1 µM ([4]; read-out: % Inhibition mean) was 5%. The inhibition at 1 µM ([5]; read-out: % Inhibition Point 1) was 39%, the inhibition at 1 µM ([5]; read-out: % Inhibition Point 2) was 35% and the inhibition at 1 µM ([5]; read-out: % Inhibition mean) was 37%. The inhibition at 1 µM ([6]; read-out: % Inhibition Point 1) was 3%, the inhibition at 1 µM ([6]; read-out: % Inhibition Point 2) was 3.66% and the inhibition at 1 µM ([6]; read-out: % Inhibition mean) was 3.32%. For the same compound, the inhibition at 1 µM ([7]; read-out: % Inhibition Point 1) was 2.18%, the inhibition at 1 µM ([7]; read-out: % Inhibition Point 2) was 6% and the inhibition at 1 µM ([7]; read-out: % Inhibition mean) was 4%.
